Consider 38 compounds from US12129237B2, “Substituted diaminocarboxamide and diaminocarbonitrile pyrimidines, compositions thereof, and methods of treatment therewith” (SIGNAL PHARMACEUTICALS, LLC, priority 2011, dated 2024).

Each structure is given as a SMILES string. A value given as a limit tells only on which side of the number the result lay.

The target of the test is T1, JNK1 (Homo sapiens, UniProt P45983).
T1 construct: purchased Carna Biosciences
T1 sequence (P45983 whole entry): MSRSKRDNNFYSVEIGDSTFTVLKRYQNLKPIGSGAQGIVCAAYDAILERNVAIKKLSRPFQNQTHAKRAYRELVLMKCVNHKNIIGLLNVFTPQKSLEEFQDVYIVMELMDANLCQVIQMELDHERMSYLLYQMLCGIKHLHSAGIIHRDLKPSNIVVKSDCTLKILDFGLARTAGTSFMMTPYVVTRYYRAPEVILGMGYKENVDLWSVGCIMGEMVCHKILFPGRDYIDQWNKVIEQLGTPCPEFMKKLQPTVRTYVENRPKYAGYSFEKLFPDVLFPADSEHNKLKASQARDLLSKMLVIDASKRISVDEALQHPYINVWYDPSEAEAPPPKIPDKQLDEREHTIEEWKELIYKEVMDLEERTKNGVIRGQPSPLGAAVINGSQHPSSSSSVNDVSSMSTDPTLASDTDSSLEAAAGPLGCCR
In words: JNK1 biochemical assays (one or more of: time resolved fluorescence, Z'-LYTE Cascade, radioactive). The settings on record: one or more of the JNK1 biochemical assays; read-out: Act. Level (JNK1 IC50 activity level).
Regarding `CC(C)Nc1nc(NC23CCC(O)(CC2)CC3)ncc1C(N)=O` [Example 202, 2-(4-hydroxybicyclo[2.2.2]octan-1-ylamino)-4-(isopropylamino)pyrimidine-5-carboxamide], the IC50 – broadly, the concentration that gives 50% inhibition – was less than 200 nM.
With `CC(=O)N[C@H]1CC[C@H](Nc2ncc(C(N)=O)c(NC(C)C)n2)CC1` [Example 203, 2-((1r,4r)-4-acetamidocyclohexylamino)-4-(isopropylamino)pyrimidine-5-carboxamide], the IC50 was less than 200 nM.
In the case of `NC(=O)c1cnc(N[C@H]2CC[C@H](OC3CC3)CC2)nc1N[C@@H]1CCC[C@H](O)C1` [Example 205, 2-((1r,4R)-4-cyclopropoxycyclohexylamino)-4-((1R,3S)-3-hydroxycyclohexylamino)pyrimidine-5-carboxamide], the IC50 is less than 200 nM.
With `CNC(=O)c1cnc(N[C@H]2CC[C@H](OC)CC2)nc1N[C@@H]1CCC[C@H](O)C1` [Example 206, 4-((1R,3S)-3-hydroxycyclohexylamino)-2-((1r,4R)-4-methoxycyclohexylamino)-N-methylpyrimidine-5-carboxamide] the figure was 200 to 800 nM; with `C[C@@H]1CC[C@@H](Nc2nc(NC3CCOCC3)ncc2C(N)=O)C[C@H]1O` [Example 208, 4-((1R,3R,4R)-3-hydroxy-4-methylcyclohexylamino)-2-(tetrahydro-2H-pyran-4-ylamino)pyrimidine-5-carboxamide], less than 200 nM; with `CCO[C@H]1CC[C@H](Nc2ncc(C(N)=O)c(N[C@@H]3CCC[C@@H]3CO)n2)CC1` [Example 209, 2-((1r,4R)-4-ethoxycyclohexylamino)-4-((1R,2S)-2-(hydroxymethyl)cyclopentylamino)pyrimidine-5-carboxamide], less than 200 nM.
Regarding `CCO[C@H]1CC[C@H](Nc2ncc(C(N)=O)c(NC(C)(C)C)n2)CC1` [Example 211, 4-(tert-butylamino)-2-((1r,4r)-4-ethoxycyclohexylamino)pyrimidine-5-carboxamide], the IC50 was less than 200 nM.
Consider `CC(C)(C)Nc1nc(N[C@H]2CC[C@H](OCC(F)(F)F)CC2)ncc1C(N)=O` [Example 212, 4-(tert-butylamino)-2-((1r,4r)-4-(2,2,2-trifluoroethoxy)cyclohexylamino)pyrimidine-5-carboxamide], for which the IC50 was less than 200 nM.
Regarding `CC(C)(C)Nc1ncc(C(N)=O)c(N[C@@H]2CCC[C@](C)(O)C2)n1` [Example 213, 2-(tert-butylamino)-4-((1R,3S)-3-hydroxy-3-methylcyclohexylamino)pyrimidine-5-carboxamide], the IC50 was less than 200 nM.
With `CN[C@H]1CC[C@H](Nc2ncc(C(N)=O)c(NC(C)C)n2)CC1` [Example 214, 4-(isopropylamino)-2-((1r,4r)-4-(methylamino)cyclohexylamino)pyrimidine-5-carboxamide] the figure was less than 200 nM.
With `CO[C@H]1CC[C@H](Nc2ncc(C(N)=O)c(N[C@]3(C)CCC[C@H](O)C3)n2)CC1` [Example 215, 4-((1R,3S)-3-hydroxy-1-methylcyclohexylamino)-2-((1r,4R)-4-methoxycyclohexylamino)pyrimidine-5-carboxamide] the figure was less than 200 nM; with `CO[C@H]1CC[C@](C)(Nc2ncc(C(N)=O)c(N[C@@H]3CCC[C@H](O)C3)n2)CC1` [Example 216, 4-((1R,3S)-3-hydroxycyclohexylamino)-2-((1r,4R)-4-methoxy-1-methylcyclohexylamino)pyrimidine-5-carboxamide], less than 200 nM.
As for `NC(=O)c1cnc(N[C@H]2CC[C@H](O)CC2)nc1NC1CC(F)(F)C1` [Example 217, 4-(3,3-difluorocyclobutylamino)-2-((1r,4r)-4-hydroxycyclohexylamino)pyrimidine-5-carboxamide], the IC50 is less than 200 nM.
Consider `NC(=O)c1cnc(N[C@H]2CC[C@H](O)CC2)nc1NCCC1CC1` [Example 218, 4-(2-cyclopropylethylamino)-2-((1r,4r)-4-hydroxycyclohexylamino)pyrimidine-5-carboxamide], for which the half-inhibitory concentration (IC50) was less than 200 nM.
Under `NC(=O)c1cnc(N[C@H]2CC[C@H](O)CC2)nc1NCCC1CCC1` [Example 219, 4-(2-cyclobutylethylamino)-2-((1r,4r)-4-hydroxycyclohexylamino)pyrimidine-5-carboxamide] stands less than 200 nM; under `CC(C)CCNc1nc(N[C@H]2CC[C@H](O)CC2)ncc1C(N)=O` [Example 220, 2-((1r,4r)-4-hydroxycyclohexylamino)-4-(isopentylamino)pyrimidine-5-carboxamide], less than 200 nM.
Under `NC(=O)c1cnc(N[C@H]2CC[C@H](O)CC2)nc1NCC1CCC1` [Example 221, 4-(cyclobutylmethylamino)-2-((1r,4r)-4-hydroxycyclohexylamino)pyrimidine-5-carboxamide] stands less than 200 nM; under `CC(C)Nc1nc(NC2CCOCC2)ncc1C(N)=O` [Example 222, 4-(isopropylamino)-2-(tetrahydro-2H-pyran-4-ylamino)pyrimidine-5-carboxamide], 200 to 800 nM.
Take `CCO[C@H]1CC[C@H](Nc2ncc(C(N)=O)c(NC(C)C)n2)CC1` [Example 224, 2-((1r,4r)-4-ethoxycyclohexylamino)-4-(isopropylamino)pyrimidine-5-carboxamide]: the IC50 is less than 200 nM.
Regarding `CCC(C)(C)Nc1nc(N[C@H]2CC[C@H](O)CC2)ncc1C(N)=O` [Example 225, 2-((1r,4r)-4-hydroxycyclohexylamino)-4-(tert-pentylamino)pyrimidine-5-carboxamide], the IC50 is less than 200 nM.
Regarding `NC(=O)c1cnc(N[C@H]2CC[C@H](O)CC2)nc1NCC1CC1` [Example 226, 4-(cyclopropylmethylamino)-2-((1r,4r)-4-hydroxycyclohexylamino)pyrimidine-5-carboxamide], the concentration for half-maximal inhibition (IC50) was less than 200 nM.
With `CC(C)Nc1nc(NC(C)(C)C)ncc1C(N)=O` [Example 227, 2-(tert-butylamino)-4-(isopropylamino)pyrimidine-5-carboxamide], the IC50 lay in the range of 200 to 800 nM.
For `CC(C)(C)CNc1nc(N[C@H]2CC[C@H](O)CC2)ncc1C(N)=O` [Example 228, 2-((1r,4r)-4-hydroxycyclohexylamino)-4-(neopentylamino)pyrimidine-5-carboxamide], the IC50 is less than 200 nM.
With `NC(=O)c1cnc(NC23CCC(O)(CC2)CC3)nc1N[C@@H]1CCC[C@H](O)C1` [Example 229, 2-(4-hydroxybicyclo[2.2.2]octan-1-ylamino)-4-((1R,3S)-3-hydroxycyclohexylamino)pyrimidine-5-carboxamide] the figure was less than 200 nM; with `COC12CCC(Nc3ncc(C(N)=O)c(N[C@@H]4CCC[C@H](O)C4)n3)(CC1)CC2` [Example 231, 4-((1R,3S)-3-hydroxycyclohexylamino)-2-(4-methoxybicyclo[2.2.2]octan-1-ylamino)pyrimidine-5-carboxamide], less than 200 nM.
As to `NC(=O)c1cnc(NC23CCC(O)(CC2)CC3)nc1NC1CCC1` [Example 232, 4-(cyclobutylamino)-2-(4-hydroxybicyclo[2.2.2]octan-1-ylamino)pyrimidine-5-carboxamide], the IC50 is less than 200 nM.
Under `CC(C)Nc1nc(N[C@H]2CCC[C@@H](O)CC2)ncc1C(N)=O` [Example 233, 2-((1S,4R)-4-hydroxycycloheptylamino)-4-(isopropylamino)pyrimidine-5-carboxamide] stands less than 200 nM; under `CC(C)Nc1nc(N[C@@H]2CCC[C@H](O)CC2)ncc1C(N)=O` [Example 234, 2-((1R,4S)-4-hydroxycycloheptylamino)-4-(isopropylamino)pyrimidine-5-carboxamide], less than 200 nM; under `NC(=O)c1cnc(N[C@H]2CC[C@H](O)CC2)nc1NC1COC1` [Example 235, 2-((1r,4r)-4-hydroxycyclohexylamino)-4-(oxetan-3-ylamino)pyrimidine-5-carboxamide], less than 200 nM.
With `CC(C)(C)Nc1ncc(C(N)=O)c(N[C@@H]2CCCOC2)n1` [Example 236, (R)-2-(tert-butylamino)-4-(tetrahydro-2H-pyran-3-ylamino)pyrimidine-5-carboxamide], the IC50 was 200 to 800 nM.
Consider `CC(C)(C)Nc1nc(NC23CCC(O)(CC2)CC3)ncc1C(N)=O` [Example 237, 4-(tert-butylamino)-2-(4-hydroxybicyclo[2.2.2]octan-1-ylamino)pyrimidine-5-carboxamide], for which the IC50 is less than 200 nM.
With `CC(C)(C)Nc1ncc(C(N)=O)c(NC(C)(C)C)n1` [Example 238, 2,4-bis(tert-butylamino)pyrimidine-5-carboxamide], the IC50 fell in the range of 200 to 800 nM.
On to `CC1(Nc2nc(N[C@H]3CC[C@H](O)CC3)ncc2C(N)=O)CCC1` [Example 239, 2-((1r,4r)-4-hydroxycyclohexylamino)-4-(1-methylcyclobutylamino)pyrimidine-5-carboxamide], for which the IC50 was less than 200 nM.
As for `CC(C)Nc1ncc(C(N)=O)c(N[C@@H]2CC[C@@H](C)[C@H](O)C2)n1` [Example 240, 4-((1R,3R,4R)-3-hydroxy-4-methylcyclohexylamino)-2-(isopropylamino)pyrimidine-5-carboxamide], the IC50 is less than 200 nM.
For `NC(=O)c1cnc(NC2CCC(F)(F)CC2)nc1N[C@@H]1CCC[C@@H]1CO` [Example 241, 2-(4,4-difluorocyclohexylamino)-4-((1R,2S)-2-(hydroxymethyl)cyclopentylamino)pyrimidine-5-carboxamide], the IC50 is less than 200 nM.
Under `CO[C@H]1CC[C@H](Nc2ncc(C(N)=O)c(NC3CCC3C)n2)CC1` (some centres unmarked) [Example 242, 2-((1r,4r)-4-methoxycyclohexylamino)-4-(2-methylcyclobutylamino)pyrimidine-5-carboxamide] stands less than 200 nM.
Regarding `CO[C@H]1CC[C@H](Nc2ncc(C(N)=O)c(NC3CCC3C)n2)CC1` (some centres unmarked) [Example 243, 2-((1r,4r)-4-methoxycyclohexylamino)-4-(2-methylcyclobutylamino)pyrimidine-5-carboxamide], the IC50 was less than 200 nM.
With `CC1CCC1Nc1nc(N[C@H]2CC[C@H](O)CC2)ncc1C(N)=O` (some centres unmarked) [Example 244, 2-((1r,4r)-4-hydroxycyclohexylamino)-4-(2-methylcyclobutylamino)pyrimidine-5-carboxamide] the figure was less than 200 nM.
